# From US10881110B2, “Herbicidal compositions comprising isoxazolo[5,4-b]pyridines” (BASF SE, priority 2014, dated 2021)
# Experiments:
# Test in all cases: greenhouse post-emergence herbicidal test
# POLCO = type: in vivo, Polygonum convolvulus; parameters: key to herbicidal activity against POLCO found: rating on a scale from 0 to 100
# Summary of the method: (§1)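 Herbicidal activity scored on a 0 (no damage) to 100 (plants destroyed) scale, usually 20 days after water-based spraying of 1–15 cm plants grown in loamy sand at 10-25 °C or 20-35 °C depending on species. Components were applied from 10% emulsion concentrates; Colby's E=X+Y−(X·Y/100) gives the additive expectation.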
# ERICA = type: in vivo, Conyza canadensis; settings: Erigeron canadensis, post-emergence, 480 h, read-out: herbicidal activity against ERICA found
# Summary of the method: (§2)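 Post-emergence spray on 1–15 cm plants in medium loamy sand pots; actives as 10% w/w EC diluted in water. 10-25° C / 20-35° C per species. Visual score 20 d after treatment, 0 = no damage, 100 = full kill; Colby expected value E=X+Y−(X·Y/100).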
# KCHSC = type: in vivo, Kochia scoparia; parameters: key to herbicidal activity against KCHSC found: rating on a scale from 0 to 100; settings: for herbicidal activity against KCHSC found: B.167 62.5 g/ha a.i.
# Protocol: (§3) The culture containers used were plastic pots containing medium loamy sand with approximately 4.6% of humus and 69.9% sand as substrate. The seeds of the test plants were sown separately for each species.
# (§4) For the post-emergence treatment, the test plants were grown to a plant height of from 1 to 15 cm, depending on the plant habit, and only then treated with the active compounds which had been suspended or emulsified in water. To this end, the test plants were either sown directly, and grown in the same containers, or they were first grown separately as seedlings and transplanted into the test containers a few days prior to treatment.
# (§5) Depending on the species, the plants were kept at 10-25° C. and 20-35° C., respectively.
# (§6) The test period extended over 1 to 3 weeks. During this time, the plants were tended and their response to the individual treatments was evaluated 20 days after treatment except mentioned otherwise.
# (§7) Evaluation was carried out using a scale from 0 to 100. 100 means no emergence of the plants, or complete destruction of at least the above-ground parts, and 0 means no damage or normal course of growth.
# (§8) The respective stated components A and B, and, if appropriate, C, were formulated as a 10% by weight strength emulsion concentrate and, with addition of the amount of solvent system, introduced into the spray liquor used for applying the active compound. In the examples, the solvent used was water.
# (§9) In the examples below, using the method of S. R. Colby (1967) “Calculating synergistic and antagonistic responses of herbicide combinations”, Weeds 15, p. 22 ff., the value E, which is expected if the activity of the individual active compounds is only additive, was calculated. E=X+Y−(X·Y/100)
# VIOAR = type: in vivo, Viola arvensis; settings: Viola arvensis, post-emergence, read-out: herbicidal activity against VIOAR found
# Summary of the method: as §1
# GERDI = type: in vivo, Geranium dissectum; parameters: key to herbicidal activity against GERDI found: rating on a scale from 0 to 100
# Summary of the method: as §2
# ECHCG = type: in vivo, Echinochloa crus-galli; parameters: key to herbicidal activity against ECHCG found / herbicidal activity against ECHCH found: scale 0 to 100; settings: for herbicidal activity against ECHCG found: B.167 125 g/ha a.i.
# Protocol: as §3, §4, §5, §6, §7, §8, §9
# MATCH = type: in vivo, Matricaria recutita; parameters: key to herbicidal activity against MATCH found: rating on a scale from 0 to 100; settings: for herbicidal activity against MATCH found: I.1 62.5 g/ha
# Summary of the method: as §2
# IPOHE = type: in vivo, Ipomoea hederacea; settings: Ipomoea hederacea, post-emergence, 480 h, single active, 50 g/ha a.i., post emergence; read-out: herbicidal activity against IPOHE found
# Protocol: as §3, §4, §5, §6, §7, §8, §9
# APESV = type: in vivo, Apera spica-venti; settings: Apera spica-venti, post-emergence, 480 h, post emergence, read-out: herbicidal activity against APESV found
# Summary of the method: as §2
# ALOMY = type: in vivo, Alopecurus myosuroides; settings: Alopecurus myosuroides, post-emergence, 480 h, post emergence, read-out: herbicidal activity against ALOMY found
# Summary of the method: as §2
# ABUTH = type: in vivo, Abutilon theophrast; parameters: key to herbicidal activity against ABUTH found: rating on a scale from 0 to 100; settings: post emergence, I.1 62.5 g/ha
# Summary of the method: as §2
# GALAP = type: in vivo, Galium aparine; settings: Galium aparine, post-emergence, 480 h, post emergence; aclonifen 250 g/ha a.i.; read-out: herbicidal activity against GALAP found
# Summary of the method: as §1
# [1] = single active, 50 g/ha a.i., post emergence
# [2] = post emergence, I.1 62.5 g/ha, B.167 125 g/ha a.i.
smiles,measurement,setting,value
"CS(=O)(=O)c1ccc(C(=O)C2C(=O)CCCC2=O)c(Cl)c1 [B.104, sulcotrione]",pest or weed control at 15 g/ha,"POLCO; Fallopia convolvulus, post-emergence, 480 h, read-out: herbicidal activity against POLCO found",90%
same,pest or weed control at 15 g/ha,ERICA,75%
same,pest or weed control at 15 g/ha,"KCHSC; Bassia scoparia, post-emergence, 480 h, read-out: herbicidal activity against KCHSC found",90%
same,pest or weed control at 15 g/ha,VIOAR,85%
same,pest or weed control at 15 g/ha,"GERDI; Geranium dissectum, post-emergence, 480 h, read-out: herbicidal activity against GERDI found",45%
same,pest or weed control at 15 g/ha,"ECHCG; Echinochloa crus-galli, post-emergence, 480 h, read-out: herbicidal activity against ECHCG found",80%
same,pest or weed control at 15 g/ha,"MATCH; Matricaria chamomilla, post-emergence, 480 h, read-out: herbicidal activity against MATCH found",10%
"CC(C)N(C(=O)COc1nnc(C(F)(F)F)s1)c1ccc(F)cc1 [B.130, flufenacet]",pest or weed control at 50 g/ha,"POLCO; Fallopia convolvulus, post-emergence, 480 h, single active, 50 g/ha a.i., post emergence, read-out: herbicidal activity against POLCO found",10%
same,pest or weed control at 100 g/ha,"POLCO; Fallopia convolvulus, post-emergence, 480 h, single active, 100 g/ha a.i., post emergence, read-out: herbicidal activity against POLCO found",10%
same,pest or weed control at 50 g/ha,IPOHE,60%
same,pest or weed control at 50 g/ha,ERICA; [1],0%
same,pest or weed control at 50 g/ha,"KCHSC; Bassia scoparia, post-emergence, 480 h, single active, 50 g/ha a.i., post emergence, read-out: herbicidal activity against KCHSC found",0%
same,pest or weed control at 50 g/ha,VIOAR; [1],80%
same,pest or weed control at 50 g/ha,"GERDI; Geranium dissectum, post-emergence, 480 h, single active, 50 g/ha a.i., post emergence, read-out: herbicidal activity against GERDI found",10%
same,pest or weed control at 100 g/ha,"GERDI; Geranium dissectum, post-emergence, 480 h, single active, 100 g/ha a.i., post emergence, read-out: herbicidal activity against GERDI found",10%
same,pest or weed control at 100 g/ha,"ECHCG; Echinochloa crus-galli, post-emergence, 480 h, single active, 100 g/ha a.i., post emergence, read-out: herbicidal activity against ECHCG found",65%
same,pest or weed control at 50 g/ha,"APESV; single active, 50 g/ha a.i.",85%
same,pest or weed control at 50 g/ha,"MATCH; Matricaria chamomilla, post-emergence, 480 h, single active, 50 g/ha a.i., post emergence, read-out: herbicidal activity against MATCH found",0%
same,pest or weed control at 100 g/ha,"MATCH; Matricaria chamomilla, post-emergence, 480 h, single active, 100 g/ha a.i., post emergence, read-out: herbicidal activity against MATCH found",20%
same,pest or weed control at 50 g/ha,"ALOMY; single active, 50 g/ha a.i.",40%
same,pest or weed control at 100 g/ha,"ALOMY; single active, 100 g/ha a.i.",65%
"O=C(O)c1c(Cl)ccc2cc(Cl)cnc12 [B.167, quinclorac]",herbicidal activity against ABUTH found,ABUTH; B.167 62.5 g/ha a.i.,65
same,herbicidal activity against ABUTH found,ABUTH; B.167 125 g/ha a.i.,70
same,herbicidal activity against POLCO found,"POLCO; post emergence, I.1 15.62 g/ha, B.167 62.5 g/ha a.i.",0
same,herbicidal activity against POLCO found,"POLCO; post emergence, I.1 15.62 g/ha, B.167 125 g/ha a.i.",30
same,herbicidal activity against POLCO found,"POLCO; post emergence, I.1 62.5 g/ha, B.167 62.5 g/ha a.i.",0
same,herbicidal activity against POLCO found,POLCO; [2],30
same,herbicidal activity against KCHSC found,"KCHSC; post emergence, I.1 31.25 g/ha",0
same,herbicidal activity against KCHSC found,"KCHSC; post emergence, I.1 62.5 g/ha",0
same,herbicidal activity against GERDI found,GERDI; [2],0
same,herbicidal activity against ECHCG found,"ECHCG; post emergence, I.1 15.62 g/ha",20
same,herbicidal activity against ECHCG found,"ECHCG; post emergence, I.1 31.25 g/ha",20
same,herbicidal activity against MATCH found,"MATCH; post emergence, B.167 62.5 g/ha a.i.",0
same,herbicidal activity against MATCH found,"MATCH; post emergence, B.167 125 g/ha a.i.",30
"Cc1cnc2c(C(=O)O)c(Cl)ccc2c1 [B.169, quinmerac]",pest or weed control at 62.5 g/ha,"ERICA; post emergence, B.169 62.5 g/ha a.i.",65%
same,pest or weed control at 125 g/ha,"ERICA; post emergence, B.169 125 g/ha a.i.",75%
same,pest or weed control at 62.5 g/ha,"KCHSC; Bassia scoparia, post-emergence, 480 h, post emergence, B.169 62.5 g/ha a.i., read-out: herbicidal activity against KCHSC found",10%
same,pest or weed control at 125 g/ha,"KCHSC; Bassia scoparia, post-emergence, 480 h, post emergence, B.169 125 g/ha a.i., read-out: herbicidal activity against KCHSC found",25%
same,pest or weed control at 62.5 g/ha,"ECHCG; Echinochloa crus-galli, post-emergence, 480 h, post emergence, B.169 62.5 g/ha a.i., read-out: herbicidal activity against ECHCG found",0%
same,pest or weed control at 62.5 g/ha,APESV; B.169 62.5 g/ha a.i.,0%
same,pest or weed control at 62.5 g/ha,ALOMY; B.169 62.5 g/ha a.i.,0%
Nc1c([N+](=O)[O-])ccc(Oc2ccccc2)c1Cl [aclonifen],pest or weed control at 250 g/ha,"POLCO; Fallopia convolvulus, post-emergence, 480 h, post emergence, aclonifen 250 g/ha a.i., read-out: herbicidal activity against POLCO found",85%
same,pest or weed control at 500 g/ha,"POLCO; Fallopia convolvulus, post-emergence, 480 h, post emergence, aclonifen 500 g/ha a.i., read-out: herbicidal activity against POLCO found",95%
same,pest or weed control at 1000 g/ha,"POLCO; Fallopia convolvulus, post-emergence, 480 h, post emergence, aclonifen 1000 g/ha a.i., read-out: herbicidal activity against POLCO found",85%
same,pest or weed control at 500 g/ha,"ERICA; post emergence, aclonifen 500 g/ha a.i.",0%
same,pest or weed control at 1000 g/ha,"ERICA; post emergence, aclonifen 1000 g/ha a.i.",0%
same,pest or weed control at 250 g/ha,"GERDI; Geranium dissectum, post-emergence, 480 h, post emergence, aclonifen 250 g/ha a.i., read-out: herbicidal activity against GERDI found",30%
same,pest or weed control at 500 g/ha,"GERDI; Geranium dissectum, post-emergence, 480 h, post emergence, aclonifen 500 g/ha a.i., read-out: herbicidal activity against GERDI found",70%
same,pest or weed control at 250 g/ha,GALAP,80%
same,pest or weed control at 250 g/ha,"ECHCG; Echinochloa crus-galli, post-emergence, 480 h, post emergence, aclonifen 250 g/ha a.i., read-out: herbicidal activity against ECHCG found",50%
same,pest or weed control at 500 g/ha,"ECHCG; Echinochloa crus-galli, post-emergence, 480 h, post emergence, aclonifen 500 g/ha a.i., read-out: herbicidal activity against ECHCG found",80%
same,pest or weed control at 250 g/ha,"MATCH; Matricaria chamomilla, post-emergence, 480 h, post emergence, aclonifen 250 g/ha a.i., read-out: herbicidal activity against MATCH found",0%
same,pest or weed control at 500 g/ha,"MATCH; Matricaria chamomilla, post-emergence, 480 h, post emergence, aclonifen 500 g/ha a.i., read-out: herbicidal activity against MATCH found",0%
same,pest or weed control at 1000 g/ha,"MATCH; Matricaria chamomilla, post-emergence, 480 h, post emergence, aclonifen 1000 g/ha a.i., read-out: herbicidal activity against MATCH found",0%
same,pest or weed control at 250 g/ha,ALOMY; aclonifen 250 g/ha a.i.,30%
same,pest or weed control at 500 g/ha,ALOMY; aclonifen 500 g/ha a.i.,60%
same,pest or weed control at 1000 g/ha,ALOMY; aclonifen 1000 g/ha a.i.,70%
